Laboratory results as given in ChEMBL document CHEMBL1201862, “PubChem BioAssay data set” (2004).
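Protocol summary: plate cells (96-well), add compound at 5 concentrations, incubate 48 h, interpolate endpoints linearly. The concentration for 50% growth inhibition is given as GI50.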 Activity calls are given as the source filed them. Cut-off read from the data, not from the text of the source: active = GI50 up to about 1.1 µM and inactive = higher.

How the values were obtained:
Test in all cases: NCI tumour cell line growth inhibition, 48 h
A498 = tested on: A498
CCRF-CEM = tested on: CCRF-CEM
COLO 205 = tested on: COLO 205
EKVX = tested on: EKVX
HCC 2998 = tested on: HCC 2998
HCT-15 = tested on: HCT-15
HOP-92 = tested on: HOP-92
Hs-578T = tested on: Hs-578T
IGROV-1 = tested on: IGROV-1
M14 = tested on: M14
MDA-N = tested on: MDA-N
NCI-H226 = tested on: NCI-H226
PC-3 = tested on: PC-3
RXF 393 = tested on: RXF 393
SK-MEL-2 = tested on: SK-MEL-2
SNB-19 = tested on: SNB-19
UO-31 = tested on: UO-31
M19-MEL = tested on: M19-MEL
KM-20L2 = tested on: KM-20L2

| SMILES | GI50 (A498) | GI50 (CCRF-CEM) | GI50 (COLO 205) | GI50 (EKVX) | GI50 (HCC 2998) | GI50 (HCT-15) | GI50 (HOP-92) | GI50 (Hs-578T) | GI50 (IGROV-1) | GI50 (M14) | GI50 (MDA-N) | GI50 (NCI-H226) | GI50 (PC-3) | GI50 (RXF 393) | GI50 (SK-MEL-2) | GI50 (SNB-19) | GI50 (UO-31) | GI50 (M19-MEL) | GI50 (KM-20L2) |
| --- | --- | --- | --- | --- | --- | --- | --- | --- | --- | --- | --- | --- | --- | --- | --- | --- | --- | --- | --- |
| COc1ccc2c(c1)CCCc1c-2nc2ccccc2c1N | 8.24 µM (inactive) | 5.24 µM (inactive) | 1.69 µM (inactive) | 6.28 µM (inactive) | 1.87 µM (inactive) | 12.5 µM | 5.73 µM (inactive) | 17.8 µM (inactive) | 12.4 µM (inactive) | 9.1 µM (inactive) | 10.3 µM (inactive) | 13.8 µM (inactive) | 10.3 µM (inactive) | 4.72 µM (inactive) | 15.7 µM (inactive) | 15.9 µM (inactive) | 5.35 µM (inactive) | – | – |
| C=C[C@H]1CN2CCc3c([nH]c4c([C@@H]5CCCN5C)c(O)ccc34)[C@@H]2C[C@@H]1C[C@H]1c2[nH]c3ccccc3c2CCN1C | 1.63 µM (inactive) | 0.188 µM (active) | 1.26 µM (inactive) | 1.58 µM (inactive) | 0.177 µM (active) | 1.02 µM | 1.19 µM (inactive) | 1.52 µM (inactive) | 1.31 µM (inactive) | 0.307 µM (active) | 0.49 µM (active) | 1.67 µM (inactive) | 1.41 µM (inactive) | 0.215 µM (active) | 1.91 µM (inactive) | 1.3 µM (inactive) | 1.08 µM (active) | – | – |
| CCCCCCCCCCCCCCCCOCC(O)CO (stereo not drawn) | 19.5 µM (inactive) | 11.1 µM (inactive) | 22.1 µM (inactive) | 18.2 µM (inactive) | 17.3 µM (inactive) | 18.7 µM | 21 µM (inactive) | 18.4 µM (inactive) | 16.3 µM (inactive) | 22.8 µM (inactive) | 25.7 µM (inactive) | 18.7 µM (inactive) | 16.5 µM (inactive) | 16.2 µM (inactive) | 20.6 µM (inactive) | 24 µM (inactive) | 17.1 µM (inactive) | – | – |
| N=C(N)NS(=O)(=O)c1ccc(Nc2c3ccccc3nc3c(C(=O)NCCO)cccc23)cc1 | 0.13 µM (active) | 0.416 µM (active) | 0.16 µM (active) | 0.248 µM (active) | 0.19 µM (active) | 0.236 µM | 0.192 µM (active) | 0.209 µM (active) | 0.141 µM (active) | 0.183 µM (active) | 0.267 µM (active) | 0.142 µM (active) | 0.21 µM (active) | 0.173 µM (active) | 0.199 µM (active) | 0.221 µM (active) | 0.175 µM (active) | – | – |
| O=C(Cn1cc(Br)c(=O)[nH]c1=O)c1ccc(-c2ccccc2)cc1 | > 100 µM (inactive) | > 12.6 µM (inactive) | > 16.4 µM (inactive) | 60 µM (inactive) | > 15.8 µM (inactive) | 7.67 µM | 6.89 µM (inactive) | 29.6 µM (inactive) | 15.7 µM (inactive) | > 15.1 µM (inactive) | > 100 µM (inactive) | 17 µM (inactive) | > 17.8 µM (inactive) | 63 µM (inactive) | > 12.4 µM (inactive) | 2.25 µM (inactive) | > 100 µM (inactive) | – | – |
| NC(=O)CC(/N=C1\C(=O)OC(C(O)CO)\C1=N/C(CC(N)=O)C(=O)O)C(=O)O (stereo not drawn) | > 100 µM (inactive) | > 100 µM (inactive) | > 100 µM (inactive) | > 100 µM (inactive) | > 100 µM (inactive) | > 100 µM | > 100 µM (inactive) | > 100 µM (inactive) | > 100 µM (inactive) | > 100 µM (inactive) | > 100 µM (inactive) | > 100 µM (inactive) | > 100 µM (inactive) | > 100 µM (inactive) | > 100 µM (inactive) | > 100 µM (inactive) | > 100 µM (inactive) | – | – |
| Cc1ccc2c(c1)/C(=N/Nc1ccccc1[N+](=O)[O-])C(=O)N2 | 4.18 µM (inactive) | 87.1 µM (inactive) | 14.6 µM (inactive) | 2.65 µM (inactive) | > 100 µM (inactive) | > 100 µM | 2.92 µM (inactive) | 3.93 µM (inactive) | 1.68 µM (inactive) | 81.5 µM (inactive) | 3.37 µM (inactive) | 8.41 µM (inactive) | 24.8 µM (inactive) | 6.52 µM (inactive) | > 100 µM (inactive) | 37.2 µM (inactive) | 2.05 µM (inactive) | – | – |
| N=S(c1ccccc1[N+](=O)[O-])c1ccccc1[N+](=O)[O-] | 16.6 µM (inactive) | 0.687 µM (active) | 1.95 µM (inactive) | 7.73 µM (inactive) | 5.32 µM (inactive) | 1.62 µM | 1.98 µM (inactive) | – | 2.34 µM (inactive) | 2.09 µM (inactive) | – | 5.6 µM (inactive) | – | 4.06 µM (inactive) | 4.84 µM (inactive) | 8.07 µM (inactive) | 3.08 µM (inactive) | 2.43 µM (inactive) | – |
| O=C(Cc1csc2[n+]1C(=O)/C(=C/c1ccc(Cl)cc1)S2)Nc1ccccc1 | 15.7 µM (inactive) | 23.8 µM (inactive) | 14.9 µM (inactive) | 16.3 µM (inactive) | 19.6 µM (inactive) | 23.8 µM | 26.6 µM (inactive) | 27.7 µM (inactive) | 16.9 µM (inactive) | 28.1 µM (inactive) | 30.4 µM (inactive) | 15.6 µM (inactive) | 16.4 µM (inactive) | 18.3 µM (inactive) | 17.9 µM (inactive) | 34.9 µM (inactive) | 21.9 µM (inactive) | – | – |
| CCCCCCC/C=C1\CCC(CN(C)C)C1=O (stereo not drawn) | 19.9 µM (inactive) | 3.03 µM (inactive) | 10.2 µM (inactive) | 15.5 µM (inactive) | 17.7 µM (inactive) | 8.36 µM | 17.3 µM (inactive) | 3.88 µM (inactive) | 19.1 µM (inactive) | 9.71 µM (inactive) | 13.2 µM (inactive) | 22.4 µM (inactive) | 14.5 µM (inactive) | 5.93 µM (inactive) | 15.9 µM (inactive) | 16.9 µM (inactive) | 15.6 µM (inactive) | – | 19.1 µM (inactive) |
| CC1CCC2(CC1)NC1=C(CC(C)CC1)C1=C2CC(C)CC1 (stereo not drawn) | 34 µM (inactive) | 18.1 µM (inactive) | 20.4 µM (inactive) | 39.1 µM (inactive) | 18.6 µM (inactive) | 18.1 µM | 18.3 µM (inactive) | 26.9 µM (inactive) | 31.3 µM (inactive) | 18.5 µM (inactive) | 31.3 µM (inactive) | 16.7 µM (inactive) | 16.1 µM (inactive) | 15.8 µM (inactive) | 21.8 µM (inactive) | 23.5 µM (inactive) | 20.3 µM (inactive) | – | – |
| CC(C)=CCC/C(C)=C/CC/C(C)=C/CC/C(=C/CC/C(C)=C\CC/C(C)=C/CC/C(C)=C/CC/C(C)=C/Cc1cc(O)ccc1O)CO | 5.33 µM (inactive) | 3.56 µM (inactive) | 2.28 µM (inactive) | 12.1 µM (inactive) | 9.93 µM (inactive) | 7.11 µM | 9.59 µM (inactive) | 2.51 µM (inactive) | 2.86 µM (inactive) | 0.681 µM (active) | 3.21 µM (inactive) | 2.29 µM (inactive) | 4.2 µM (inactive) | 0.483 µM (active) | 3.32 µM (inactive) | 7.1 µM (inactive) | 7.98 µM (inactive) | – | – |
